Experimental data published in ChEMBL document CHEMBL1201862, “PubChem BioAssay data set” (2004).
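Dose response: 5 concentrations. Exposure: 48 h. Format: 96-well plates. Endpoint: linear interpolation; highest concentration if not reached. At the GI50, growth is halved.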 The source made the active and inactive calls. Rule as the data show it: active = GI50 up to about 1.1 µM and inactive = higher. Where a SMILES comes first, the peptide text is derived from it. The star is where a group is joined. Boc = CC(C)(C)OC(=O)*

How the values were obtained:
Test in all cases: growth of human tumour cells (NCI), 48 h
MDA-MB-231 = tested on: MDA-MB-231
IGROV-1 = tested on: IGROV-1
786-0 = tested on: 786-0
RPMI-8226 = tested on: RPMI-8226
COLO 205 = tested on: COLO 205
MDA-MB-435 = tested on: MDA-MB-435
SK-OV-3 = tested on: SK-OV-3
HOP-92 = tested on: HOP-92
Malme-3M = tested on: Malme-3M
TK-10 = tested on: TK-10
UO-31 = tested on: UO-31
M14 = tested on: M14
OVCAR-5 = tested on: OVCAR-5
BT-549 = tested on: BT-549
SNB-19 = tested on: SNB-19
EKVX = tested on: EKVX
NCI-H522 = tested on: NCI-H522
HT-29 = tested on: HT-29
KM12 = tested on: KM12

Compound	GI50 (MDA-MB-231)	GI50 (IGROV-1)	GI50 (786-0)	GI50 (RPMI-8226)	GI50 (COLO 205)	GI50 (MDA-MB-435)	GI50 (SK-OV-3)	GI50 (HOP-92)	GI50 (Malme-3M)	GI50 (TK-10)	GI50 (UO-31)	GI50 (M14)	GI50 (OVCAR-5)	GI50 (BT-549)	GI50 (SNB-19)	GI50 (EKVX)	GI50 (NCI-H522)	GI50 (HT-29)	GI50 (KM12)
CN1CC[N+](C)=C1c1ccccc1	> 100 µM (inactive)	> 100 µM (inactive)	> 100 µM (inactive)	> 100 µM (inactive)	> 100 µM (inactive)	> 100 µM (inactive)	> 100 µM (inactive)	> 100 µM (inactive)	> 100 µM (inactive)	> 100 µM (inactive)	> 100 µM (inactive)	> 100 µM (inactive)	> 100 µM (inactive)	> 100 µM (inactive)	> 100 µM (inactive)	> 100 µM (inactive)	> 100 µM (inactive)	> 100 µM (inactive)	> 100 µM (inactive)
COc1ccc(C2SCC(=O)N2NC2=NC(=O)CC(=O)N2)cc1 (centres undefined)	> 100 µM (inactive)	> 100 µM (inactive)	> 100 µM (inactive)	> 100 µM (inactive)	> 100 µM (inactive)	> 100 µM (inactive)	> 100 µM (inactive)	> 100 µM (inactive)	> 100 µM (inactive)	> 100 µM (inactive)	> 100 µM (inactive)	> 100 µM (inactive)	> 100 µM (inactive)	> 100 µM (inactive)	–	–	> 100 µM (inactive)	> 100 µM (inactive)	> 100 µM (inactive)
O=C1C(Cl)=C(NCCc2ccc(O)cc2)C(=O)c2c(O)ccc(O)c21	> 10 µM (inactive)	> 10 µM (inactive)	9.46 µM (inactive)	> 10 µM (inactive)	> 10 µM (inactive)	4.36 µM (inactive)	> 10 µM (inactive)	> 10 µM (inactive)	1.88 µM (inactive)	> 10 µM (inactive)	–	> 10 µM (inactive)	> 10 µM (inactive)	> 10 µM (inactive)	> 10 µM (inactive)	> 10 µM (inactive)	> 10 µM (inactive)	4.27 µM (inactive)	7.28 µM (inactive)
N=c1c2c(=S)n(-c3ccccc3)c(=S)n(-c3ccccc3)c2nc(SCCN2CCCC2)n1-c1ccccc1	1.78 µM (inactive)	1.77 µM (inactive)	0.622 µM (active)	0.341 µM (active)	1.55 µM (inactive)	1.87 µM (inactive)	12.6 µM (inactive)	1.71 µM (inactive)	2.17 µM (inactive)	1.59 µM (inactive)	–	1.6 µM (inactive)	17.5 µM (inactive)	1.92 µM (inactive)	15.2 µM (inactive)	2.49 µM (inactive)	1.72 µM (inactive)	1.81 µM (inactive)	5.2 µM (inactive)
CCOC(=O)CC(=O)Nc1cccc2nc[nH]c12	> 100 µM (inactive)	> 100 µM (inactive)	> 100 µM (inactive)	> 100 µM (inactive)	> 100 µM (inactive)	> 100 µM (inactive)	> 100 µM (inactive)	> 100 µM (inactive)	> 100 µM (inactive)	–	> 100 µM (inactive)	> 100 µM (inactive)	> 100 µM (inactive)	> 100 µM (inactive)	> 100 µM (inactive)	> 100 µM (inactive)	–	> 100 µM (inactive)	51.8 µM (inactive)
C/C(=N\Nc1nc2ccccc2s1)c1cccnn1	2.28 µM (inactive)	0.581 µM (active)	1.26 µM (inactive)	1.4 µM (inactive)	2.48 µM (inactive)	4.26 µM (inactive)	4.29 µM (inactive)	2.32 µM (inactive)	–	–	1.24 µM (inactive)	3.05 µM (inactive)	4.02 µM (inactive)	5.32 µM (inactive)	8.2 µM (inactive)	0.753 µM (active)	1.72 µM (inactive)	3.24 µM (inactive)	2.77 µM (inactive)
CCC1NC(=O)C(NC(=O)c2ncccc2O)C(C)OC(=O)C(c2ccccc2)NC(=O)C2CC(=O)CCN2C(=O)C(Cc2ccccc2)N(C)C(=O)C2CCCN2C1=O (centres undefined)	> 100 µM (inactive)	> 100 µM (inactive)	> 100 µM (inactive)	> 100 µM (inactive)	> 100 µM (inactive)	> 100 µM (inactive)	> 100 µM (inactive)	> 100 µM (inactive)	> 100 µM (inactive)	> 100 µM (inactive)	> 100 µM (inactive)	> 100 µM (inactive)	> 100 µM (inactive)	> 100 µM (inactive)	> 100 µM (inactive)	–	> 100 µM (inactive)	> 100 µM (inactive)	> 100 µM (inactive)
CC(=O)Nc1cc2cc(N)ccc2oc1=O	> 100 µM (inactive)	> 100 µM (inactive)	> 100 µM (inactive)	> 100 µM (inactive)	> 100 µM (inactive)	> 100 µM (inactive)	–	> 100 µM (inactive)	> 100 µM (inactive)	> 100 µM (inactive)	> 100 µM (inactive)	> 100 µM (inactive)	> 100 µM (inactive)	> 100 µM (inactive)	> 100 µM (inactive)	> 100 µM (inactive)	> 100 µM (inactive)	> 100 µM (inactive)	> 100 µM (inactive)
COC(=O)C(C)NC(=O)C(CCSC)NC(=O)C(Cc1ccccc1)NC(=O)OC(C)(C)C (stereo not drawn) (Boc-Phe-Met-Ala-OMe; configuration not given here)	> 100 µM (inactive)	> 100 µM (inactive)	> 100 µM (inactive)	> 100 µM (inactive)	> 100 µM (inactive)	> 100 µM (inactive)	> 100 µM (inactive)	> 100 µM (inactive)	> 100 µM (inactive)	> 100 µM (inactive)	> 100 µM (inactive)	> 100 µM (inactive)	> 100 µM (inactive)	> 100 µM (inactive)	> 100 µM (inactive)	–	> 100 µM (inactive)	> 100 µM (inactive)	> 100 µM (inactive)
CC(=O)OCC1OC(N2C(C)=C(C(C)=O)C(c3ccco3)C(C#N)=C2S)C(OC(C)=O)C(OC(C)=O)C1OC(C)=O (centres undefined)	> 100 µM (inactive)	> 100 µM (inactive)	> 100 µM (inactive)	> 100 µM (inactive)	> 100 µM (inactive)	> 100 µM (inactive)	–	> 100 µM (inactive)	> 100 µM (inactive)	> 100 µM (inactive)	81.1 µM (inactive)	> 100 µM (inactive)	> 100 µM (inactive)	> 100 µM (inactive)	> 100 µM (inactive)	–	> 100 µM (inactive)	> 100 µM (inactive)	> 100 µM (inactive)
CC1=NN(c2nc(N)nc(CC#N)n2)C(C)(C)C1	> 100 µM (inactive)	> 100 µM (inactive)	> 100 µM (inactive)	> 100 µM (inactive)	> 100 µM (inactive)	> 100 µM (inactive)	> 100 µM (inactive)	> 100 µM (inactive)	–	> 100 µM (inactive)	> 100 µM (inactive)	> 100 µM (inactive)	–	> 100 µM (inactive)	> 100 µM (inactive)	> 100 µM (inactive)	–	> 100 µM (inactive)	> 100 µM (inactive)
CC1NC(=O)C2Cc3ccc(O)c(c3)Oc3ccc(cc3)C(O)C(C(=O)N2C)N(C)C(=O)C(C)NC(=O)C(Cc2ccc(O)cc2)N(C)C(=O)C(C)NC1=O (centres undefined)	11.1 µM (inactive)	4.85 µM (inactive)	38 µM (inactive)	12 µM (inactive)	79.6 µM (inactive)	18.8 µM (inactive)	–	15.8 µM (inactive)	–	> 100 µM (inactive)	> 100 µM (inactive)	63.2 µM (inactive)	42.6 µM (inactive)	24.6 µM (inactive)	13.8 µM (inactive)	57 µM (inactive)	9.44 µM (inactive)	19.2 µM (inactive)	9.68 µM (inactive)
CCOC(=O)c1nc2cc(F)cc(F)c2[nH]c1=O	> 100 µM (inactive)	> 100 µM (inactive)	> 100 µM (inactive)	> 100 µM (inactive)	> 100 µM (inactive)	> 100 µM (inactive)	> 100 µM (inactive)	> 100 µM (inactive)	–	> 100 µM (inactive)	72.8 µM (inactive)	> 100 µM (inactive)	> 100 µM (inactive)	> 100 µM (inactive)	> 100 µM (inactive)	–	–	> 100 µM (inactive)	> 100 µM (inactive)
CCC1OC2C(CC=C(C)C)=C3OC(C)(O)C(C)(CC)C(O)C3=C3OC(=O)C=C1C32 (centres undefined)	19 µM (inactive)	–	37.2 µM (inactive)	31.6 µM (inactive)	29.9 µM (inactive)	67 µM (inactive)	> 100 µM (inactive)	17.3 µM (inactive)	–	70.6 µM (inactive)	25.4 µM (inactive)	30.8 µM (inactive)	74.8 µM (inactive)	23 µM (inactive)	54.6 µM (inactive)	35.6 µM (inactive)	–	–	34.7 µM (inactive)
CCOC(=O)Cn1c(=O)ccn(COCCO)c1=O	> 100 µM (inactive)	> 100 µM (inactive)	–	> 100 µM (inactive)	> 100 µM (inactive)	> 100 µM (inactive)	–	> 100 µM (inactive)	> 100 µM (inactive)	> 100 µM (inactive)	> 100 µM (inactive)	> 100 µM (inactive)	> 100 µM (inactive)	> 100 µM (inactive)	> 100 µM (inactive)	> 100 µM (inactive)	> 100 µM (inactive)	> 100 µM (inactive)	> 100 µM (inactive)
O=c1cc(O)c2c(O)cc(O)cc2o1	> 100 µM (inactive)	> 100 µM (inactive)	> 100 µM (inactive)	> 100 µM (inactive)	> 100 µM (inactive)	> 100 µM (inactive)	–	> 100 µM (inactive)	> 100 µM (inactive)	> 100 µM (inactive)	–	> 100 µM (inactive)	> 100 µM (inactive)	> 100 µM (inactive)	> 100 µM (inactive)	> 100 µM (inactive)	> 100 µM (inactive)	> 100 µM (inactive)	–
